In patent US10538535B2, “Antitumoral compounds” (priority 2017, dated 2020):
Read-outs that look alike come from different tables or passages of the source.

What was measured:
[1] = MTMD (Maximum Tolerated Multiple Dose) determination, iv weekly x3; type: in vivo; conditions: mice; iv/Q7dx3
Excerpt: Female CD-1 or Athymic Nude-Fox1 nu/nu mice (Envigo) were utilized for all experiments. […] Animals were acclimated for five days prior to being individually tattoo-identified. Animal protocols were reviewed and approved according to the regional Institutional Animal Care and Use Committees.
Mice were randomly allocated into experimental groups and intravenously administered, once for the MTD (Maximum Tolerated Dose) determination or one administration a week during three consecutive weeks, for the MTMD (Maximum Tolerated Multiple Dose) determination study. The animals were administered with white formulation or with compound dissolved in the experimental formulation at different concentrations. The volume administered was always 10 mL/kg. Once administered, animals were monitored for clinical signs of systemic toxicity, changes in body weight and mortality up to 14 days after the administration.

MDA-MB-231 cells = assay: cells; conditions: Homo sapiens, MDA-MB-231, 72 h; for CC50: read-out: LC50; for IC (TGI): read-out: TGI
Summary of the method: (§1)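 Cells seeded at 5000/well, attached 18 h, then treated 72 h with ten 2/5 serial dilutions (10 to 0.003 μg/mL, 1% final DMSO) in triplicate. Growth measured by SRB staining after glutaraldehyde fixation, with time-zero plate; values from NCI algorithm and four-parameter logistic fit.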

A549 cells = assay: cells; conditions: Homo sapiens, A549, 72 h; for CC50: read-out: LC50; for IC (TGI): read-out: TGI
Summary of the method: as §1

PSN1 cells = assay: cells; conditions: Homo sapiens, PSN1, 72 h; for CC50: read-out: LC50; for IC (TGI): read-out: TGI
Summary of the method: as §1

HT29 cells = assay: cells; conditions: Homo sapiens, HT-29, 72 h; for CC50: read-out: LC50; for IC (TGI): read-out: TGI
Summary of the method: as §1

H526 tumors = assay: In vivo xenograft, human lung (SCLC) H526; conditions: iv weekly

Protocol for A2780 tumors: (§2) Female athymic nu/nu mice (Harlan Laboratories Models, S. L. Barcelona, Spain or Envigo, Spain) were utilized for all experiments. Animal were housed in individually ventilated cages Sealsafe® Plus, Techniplast S.P.A.), up to ten per cage on a 12-hour light-dark cycle at 21-23° C. and 40-60% humidity. […] Animals were acclimated for at least 5 days prior to tumor implantation with a tumor cell suspension.
Culture cells were passaged every 3 to 5 days upon reaching confluence. Each animal was subcutaneously implanted (on the right flank using 26 G needle and a 1 cc syringe) at 4-6 weeks of age with 10×10^6 A2780 cells suspended in 0.05 mL of a solution consisting of 50% Matrigel® (Corning Incorporated Life Sciences) and 50% medium without serum or antibiotics.
(§3) Treatment tolerability was assessed by monitoring body weight evolution, clinical signs of systemic toxicity, as well as evidences of local damage in the injection site.
In xenograft studies with other cell lines: • Tumor volume was calculated using the equation (a·b^2)/2, where a: length (longest diameter) and b: width (shortest diameter) were measured in mm by using digital caliper (Fowler Sylvac, S235PAT).
(§4) Treatments producing >20% lethality and/or 20% net body weight loss were considered toxic.
Protocol for HGC27 tumors: as §2
HGC27 cells were maintained in vitro at 37° C. with 5% CO2 in Iscove's Modified Dulbecco's Medium (Sigma Aldrich, Co). Culture cells were passage every 3 to 5 days on reaching confluence. Each animal was subcutaneously implanted (on the right flank using 26 G needle and a 1 cc syringe) at 4-6 weeks of age with 5×10^6 HGC-27 cells suspended in 0.05 mL of a solution consisting of 50% Matrigel® (Corning Incorporated Life Sciences), 50% medium without serum or antibiotics.
as §3, §4

COc1c(C)cc2c(c1O)[C@@H]1[C@@H]3[C@@H]4SC[C@]5(NCCc6c5[nH]c5ccccc65)C(=O)OC[C@@H](c5c6c(c(C)c(OC(C)=O)c54)OCO6)N3[C@@H](O)[C@H](C2)N1C [ET-736, Ecteinascidin 736]
MTMD [1]: 0.5 mg/kg | GI50 (MDA-MB-231 cells): 21.2 nM | CC50 (MDA-MB-231 cells): 47.7 nM | IC (TGI) (MDA-MB-231 cells): 25.2 nM | GI50 (A549 cells): 22.5 nM | CC50 (A549 cells): > 132 nM | IC (TGI) (A549 cells): 47.7 nM | GI50 (PSN1 cells): 39.7 nM | CC50 (PSN1 cells): 102 nM | IC (TGI) (PSN1 cells): 59.6 nM | GI50 (HT29 cells): 21.2 nM | CC50 (HT29 cells): > 132 nM | IC (TGI) (HT29 cells): 22.5 nM | Median Tumor Volume (HGC27 tumors; Day 0, HGC27 xenograft): 195.9 mm^3 | Median Tumor Volume (HGC27 tumors; Day 2, HGC27 xenograft): 359.2 mm^3 | Median Tumor Volume (HGC27 tumors; Day 5, HGC27 xenograft): 537.6 mm^3 | Median Tumor Volume (HGC27 tumors; Day 7, HGC27 xenograft): 553.5 mm^3 | Median Tumor Volume (HGC27 tumors; Day 9, HGC27 xenograft): 604.7 mm^3 | Median Tumor Volume (HGC27 tumors; Day 12, HGC27 xenograft): 627.4 mm^3 | Median Tumor Volume (HGC27 tumors; Day 14, HGC27 xenograft): 648.0 mm^3 | Median Tumor Volume (HGC27 tumors; Day 16, HGC27 xenograft): 687.6 mm^3 | Median Tumor Volume (HGC27 tumors; Day 19, HGC27 xenograft): 760.0 mm^3 | Median Tumor Volume (HGC27 tumors; Day 21, HGC27 xenograft): 792.4 mm^3 | Median Tumor Volume (HGC27 tumors; Day 23, HGC27 xenograft): 818.9 mm^3 | Median Tumor Volume (HGC27 tumors; Day 26, HGC27 xenograft): 1026.1 mm^3 | Median Tumor Volume (HGC27 tumors; Day 28, HGC27 xenograft): 1354.9 mm^3 | Median Tumor Volume (H526 tumors; Table 63, Day 0, 32 and ET-736 0.5 mg/Kg): 213.5 mm^3 | Median Tumor Volume (H526 tumors; Table 63, Day 2, 32 and ET-736 0.5 mg/Kg): 240.5 mm^3 | Median Tumor Volume (H526 tumors; Table 63, Day 4, 32 and ET-736 0.5 mg/Kg): 97.2 mm^3 | Median Tumor Volume (H526 tumors; Table 63, Day 7, 32 and ET-736 0.5 mg/Kg): 48.8 mm^3 | Median Tumor Volume (H526 tumors; Table 63, Day 9, 32 and ET-736 0.5 mg/Kg): 62.5 mm^3 | Median Tumor Volume (H526 tumors; Table 63, Day 11, 32 and ET-736 0.5 mg/Kg): 62.5 mm^3 | Median Tumor Volume (H526 tumors; Table 63, Day 14, 32 and ET-736 0.5 mg/Kg): 47.3 mm^3 | Median Tumor Volume (H526 tumors; Table 63, Day 16, 32 and ET-736 0.5 mg/Kg): 32.0 mm^3 | Median Tumor Volume (H526 tumors; Table 63, Day 21, 32 and ET-736 0.5 mg/Kg): 4.0 mm^3 | Median Tumor Volume (H526 tumors; Table 63, Day 28, 32 and ET-736 0.5 mg/Kg): 4.0 mm^3 | Median Tumor Volume (H526 tumors; Table 63, Day 35, 32 and ET-736 0.5 mg/Kg): 4.0 mm^3 | Median Tumor Volume (H526 tumors; Table 63, Day 42, 32 and ET-736 0.5 mg/Kg): 4.0 mm^3 | Median Tumor Volume (H526 tumors; Table 63, Day 49, 32 and ET-736 0.5 mg/Kg): 4.0 mm^3 | Median Tumor Volume (H526 tumors; Table 63, Day 56, 32 and ET-736 0.5 mg/Kg): 4.0 mm^3 | Median Tumor Volume (H526 tumors; Table 63, Day 63, 32 and ET-736 0.5 mg/Kg): 4.0 mm^3 | Median Tumor Volume (H526 tumors; Table 63, Day 70, 32 and ET-736 0.5 mg/Kg): 4.0 mm^3 | Median Tumor Volume (H526 tumors; Table 63, Day 77, 32 and ET-736 0.5 mg/Kg): 4.0 mm^3 | Median Tumor Volume (H526 tumors; Table 63, Day 84, 32 and ET-736 0.5 mg/Kg): 199.8 mm^3 | Median Tumor Volume (H526 tumors; Table 63, Day 91, 32 and ET-736 0.5 mg/Kg): 786.5 mm^3 | Median Tumor Volume (A2780 tumors; Day 0, A2780 xenograft): 168.8 mm^3 | Median Tumor Volume (A2780 tumors; Day 2, A2780 xenograft): 251.2 mm^3 | Median Tumor Volume (A2780 tumors; Day 5, A2780 xenograft): 382.6 mm^3 | Median Tumor Volume (A2780 tumors; Day 7, A2780 xenograft): 676.1 mm^3 | Median Tumor Volume (A2780 tumors; Day 9, A2780 xenograft): 959.4 mm^3 | Median Tumor Volume (A2780 tumors; Day 12, A2780 xenograft): 1241.5 mm^3 | Median Tumor Volume (A2780 tumors; Day 14, A2780 xenograft): 1582.7 mm^3 | Median Tumor Volume (A2780 tumors; Day 16, A2780 xenograft): 1646.4 mm^3 | Median Tumor Volume (A2780 tumors; Day 19, A2780 xenograft): 1845.5 mm^3 | Median Tumor Volume (A2780 tumors; Day 21, A2780 xenograft): 2025.0 mm^3

COc1c(C)cc2c(c1O)[C@@H]1[C@@H]3[C@@H]4SC[C@]5(N[C@H](C)Cc6c5[nH]c5ccccc65)C(=O)OC[C@@H](c5c6c(c(C)c(OC(C)=O)c54)OCO6)N3[C@@H](O)[C@H](C2)N1C [C]
MTMD [1]: 3.0 mg/kg | GI50 (MDA-MB-231 cells): 26 nM | CC50 (MDA-MB-231 cells): > 130 nM | IC (TGI) (MDA-MB-231 cells): 54.6 nM | GI50 (A549 cells): 27.3 nM | CC50 (A549 cells): > 130 nM | IC (TGI) (A549 cells): 66.3 nM | GI50 (PSN1 cells): 36.4 nM | CC50 (PSN1 cells): 65 nM | IC (TGI) (PSN1 cells): 44.2 nM | GI50 (HT29 cells): 20.8 nM | CC50 (HT29 cells): > 130 nM | IC (TGI) (HT29 cells): 23.4 nM | Median Tumor Volume (HGC27 tumors; iv, 3 mg/kg, 0 h): 195.0 mm^3 | Median Tumor Volume (HGC27 tumors; iv, 3 mg/kg, 48 h): 391.0 mm^3 | Median Tumor Volume (HGC27 tumors; iv, 3 mg/kg, 120 h): 578.6 mm^3 | Median Tumor Volume (HGC27 tumors; iv, 3 mg/kg, 168 h): 708.2 mm^3 | Median Tumor Volume (HGC27 tumors; iv, 3 mg/kg, 336 h): 1496.8 mm^3 | Median Tumor Volume (HGC27 tumors; iv, 3 mg/kg, 384 h): 1690.6 mm^3 | Median Tumor Volume (HGC27 tumors; iv, 3 mg/kg, 456 h): 2004.0 mm^3 | Median Tumor Volume (HGC27 tumors; iv, 3 mg/kg, 504 h): 1741.4 mm^3 | Median Tumor Volume (HGC27 tumors; iv, 3 mg/kg, 552 h): 2056.4 mm^3 | Median Tumor Volume (H526 tumors; Table 49, Day 0, 39-S […], C 3 mg/Kg): 217.9 mm^3 | Median Tumor Volume (H526 tumors; Table 49, Day 2, 39-S […], C 3 mg/Kg): 262.4 mm^3 | Median Tumor Volume (H526 tumors; Table 49, Day 4, 39-S […], C 3 mg/Kg): 108.3 mm^3 | Median Tumor Volume (H526 tumors; Table 49, Day 7, 39-S […], C 3 mg/Kg): 129.8 mm^3 | Median Tumor Volume (H526 tumors; Table 49, Day 9, 39-S […], C 3 mg/Kg): 85.9 mm^3 | Median Tumor Volume (H526 tumors; Table 49, Day 11, 39-S […], C 3 mg/Kg): 52.3 mm^3 | Median Tumor Volume (H526 tumors; Table 49, Day 14, 39-S […], C 3 mg/Kg): 54.1 mm^3 | Median Tumor Volume (H526 tumors; Table 49, Day 16, 39-S […], C 3 mg/Kg): 47.3 mm^3 | Median Tumor Volume (H526 tumors; Table 49, Day 21, 39-S […], C 3 mg/Kg): 4.0 mm^3 | Median Tumor Volume (H526 tumors; Table 49, Day 28, 39-S […], C 3 mg/Kg): 4.0 mm^3 | Median Tumor Volume (H526 tumors; Table 49, Day 35, 39-S […], C 3 mg/Kg): 4.0 mm^3 | Median Tumor Volume (H526 tumors; Table 49, Day 42, 39-S […], C 3 mg/Kg): 62.5 mm^3 | Median Tumor Volume (H526 tumors; Table 49, Day 49, 39-S […], C 3 mg/Kg): 53.5 mm^3 | Median Tumor Volume (H526 tumors; Table 49, Day 56, 39-S […], C 3 mg/Kg): 70.0 mm^3 | Median Tumor Volume (H526 tumors; Table 49, Day 63, 39-S […], C 3 mg/Kg): 132.3 mm^3 | Median Tumor Volume (H526 tumors; Table 49, Day 70, 39-S […], C 3 mg/Kg): 368.5 mm^3 | Median Tumor Volume (H526 tumors; Table 49, Day 77, 39-S […], C 3 mg/Kg): 465.8 mm^3 | Median Tumor Volume (H526 tumors; Table 49, Day 84, 39-S […], C 3 mg/Kg): 107.4 mm^3 | Median Tumor Volume (H526 tumors; Table 49, Day 91, 39-S […], C 3 mg/Kg): 130.0 mm^3 | Median Tumor Volume (H526 tumors; Table 49, Day 98, 39-S […], C 3 mg/Kg): 4.0 mm^3 | Median Tumor Volume (H526 tumors; Table 49, Day 105, 39-S […], C 3 mg/Kg): 4.0 mm^3 | Median Tumor Volume (H526 tumors; Table 49, Day 112, 39-S […], C 3 mg/Kg): 4.0 mm^3 | Median Tumor Volume (H526 tumors; Table 49, Day 119, 39-S […], C 3 mg/Kg): 4.0 mm^3 | Median Tumor Volume (H526 tumors; Table 49, Day 126, 39-S […], C 3 mg/Kg): 4.0 mm^3 | Median Tumor Volume (H526 tumors; Table 49, Day 133, 39-S […], C 3 mg/Kg): 4.0 mm^3 | Median Tumor Volume (H526 tumors; Table 49, Day 140, 39-S […], C 3 mg/Kg): 4.0 mm^3 | Median Tumor Volume (H526 tumors; Table 49, Day 147, 39-S […], C 3 mg/Kg): 4.0 mm^3 | Median Tumor Volume (H526 tumors; Table 49, Day 165, 39-S […], C 3 mg/Kg): 4.0 mm^3 | Median Tumor Volume (H526 tumors; Table 49, Day 175, 39-S […], C 3 mg/Kg): 4.0 mm^3 | Median Tumor Volume (H526 tumors; Table 49, Day 191, 39-S […], C 3 mg/Kg): 4.0 mm^3 | Median Tumor Volume (H526 tumors; Table 49, Day 205, 39-S […], C 3 mg/Kg): 4.0 mm^3 | Median Tumor Volume (A2780 tumors; iv, 3 mg/kg, 0 h): 169.6 mm^3 | Median Tumor Volume (A2780 tumors; iv, 3 mg/kg, 48 h): 206.3 mm^3 | Median Tumor Volume (A2780 tumors; iv, 3 mg/kg, 120 h): 372.7 mm^3 | Median Tumor Volume (A2780 tumors; iv, 3 mg/kg, 168 h): 607.6 mm^3 | Median Tumor Volume (A2780 tumors; iv, 3 mg/kg, 336 h): 1293.9 mm^3 | Median Tumor Volume (A2780 tumors; iv, 3 mg/kg, 384 h): 1683.5 mm^3 | Median Tumor Volume (A2780 tumors; iv, 3 mg/kg, 456 h): 2137.5 mm^3
